From ChEMBL document CHEMBL1129595, “Potent 6-desfluoro-8-methylquinolones as new lead compounds in antibacterial chemotherapy” (J Med Chem, 1996)
Converted amounts (≈) assume the structure as drawn.

What was measured:
Format in all cases: functional
Proteus mirabilis = assay: In vitro antibacterial activity against Proteus mirabilis OBT 505
Pseudomonas aeruginosa [1] = assay: In vitro antibacterial activity against Pseudomonas aeruginosa […] 9027
Staphylococcus aureus [2] = assay: In vitro antibacterial activity against Staphylococcus aureus M-R POMM 6214
Enterococcus faecalis [3] = assay: In vitro antibacterial activity against Enterococcus faecalis UCMC 39690
Enterococcus faecalis [4] = assay: In vitro antibacterial activity against Enterococcus faecalis LEP Br
Staphylococcus aureus [5] = assay: In vitro antibacterial activity against Staphylococcus aureus MPR 5
Haemophilus influenzae = assay: In vitro antibacterial activity against Haemophilus influenzae
Escherichia coli [6] = assay: In vitro antibacterial activity against Escherichia coli ATCC 25922
Staphylococcus aureus [7] = assay: In vitro antibacterial activity against Staphylococcus aureus ATCC 29213
Escherichia coli [8] = assay: In vitro antibacterial activity against Escherichia coliCPX-R OBT 431
Streptococcus pneumoniae = assay: In vitro antibacterial activity against Streptococcus pneumoniae I 0.43
Proteus vulgaris = assay: In vitro antibacterial activity against Proteus vulgaris CNUR 6
Klebsiella pneumoniae = assay: In vitro antibacterial activity against Klebsiella pneumoniae ATCC 10031
Pseudomonas aeruginosa [9] = assay: In vitro antibacterial activity against Pseudomonas aeruginosa OBT 307
Streptococcus pyogenes = assay: In vitro antibacterial activity against Streptococcus pyogenes OMNFI BI
Enterobacter cloacae = assay: In vitro antibacterial activity against Enterobacter cloacae OMNFI 174
Staphylococcus aureus [10] = assay: In vitro antibacterial activity against Staphylococcus aureus CPX-R OBT 687
Escherichia coli [11] = assay: In vitro antibacterial activity against Escherichia coli 120

| SMILES | MIC (Proteus mirabilis) [µg/mL] | MIC (Pseudomonas aeruginosa [1]) [µg/mL] | MIC (Staphylococcus aureus [2]) [µg/mL] | MIC (Enterococcus faecalis [3]) [µg/mL] | MIC (Enterococcus faecalis [4]) [µg/mL] | MIC (Staphylococcus aureus [5]) [µg/mL] | MIC (Haemophilus influenzae) [µg/mL] | MIC (Escherichia coli [6]) [µg/mL] | MIC (Staphylococcus aureus [7]) [µg/mL] | MIC (Escherichia coli [8]) [µg/mL] | MIC (Streptococcus pneumoniae) [µg/mL] | MIC (Proteus vulgaris) [µg/mL] | MIC (Klebsiella pneumoniae) [µg/mL] | MIC (Pseudomonas aeruginosa [9]) [µg/mL] | MIC (Streptococcus pyogenes) [µg/mL] | MIC (Enterobacter cloacae) [µg/mL] | MIC (Staphylococcus aureus [10]) [µg/mL] | MIC (Escherichia coli [11]) [µg/mL] |
| --- | --- | --- | --- | --- | --- | --- | --- | --- | --- | --- | --- | --- | --- | --- | --- | --- | --- | --- |
| Cc1c(N2CCSCC2)ccc2c(=O)c(C(=O)O)cn(C3CC3)c12 | 4 (≈ 11.6 µM) | 4 (≈ 11.6 µM) | > 0.016 | 0.5 (≈ 1.45 µM) | 1 (≈ 2.9 µM) | > 0.016 | < 0.016 | 0.125 (≈ 0.363 µM) | > 0.016 | > 16 | 1 (≈ 2.9 µM) | 16 (≈ 46.5 µM) | < 0.016 | 16 (≈ 46.5 µM) | 0.5 (≈ 1.45 µM) | 1 (≈ 2.9 µM) | 2 (≈ 5.81 µM) | 0.25 (≈ 0.726 µM) |
| Cc1c(N2CC(C)OC(C)C2)ccc2c(=O)c(C(=O)O)cn(C3CC3)c12 (configuration not stated) | 16 (≈ 44.9 µM) | 16 (≈ 44.9 µM) | 0.03 (≈ 0.0842 µM) | 0.25 (≈ 0.701 µM) | 1 (≈ 2.81 µM) | < 0.016 | 1 (≈ 2.81 µM) | 1 (≈ 2.81 µM) | 0.125 (≈ 0.351 µM) | > 16 | 0.5 (≈ 1.4 µM) | > 16 | 0.125 (≈ 0.351 µM) | 16 (≈ 44.9 µM) | 0.5 (≈ 1.4 µM) | 2 (≈ 5.61 µM) | 1 (≈ 2.81 µM) | 0.5 (≈ 1.4 µM) |
| Cc1c(N2CCC(O)CC2)ccc2c(=O)c(C(=O)O)cn(C3CC3)c12 | 2 (≈ 5.84 µM) | 2 (≈ 5.84 µM) | < 0.016 | 0.125 (≈ 0.365 µM) | 0.5 (≈ 1.46 µM) | < 0.016 | 0.25 (≈ 0.73 µM) | 0.06 (≈ 0.175 µM) | < 0.016 | > 16 | 0.25 (≈ 0.73 µM) | 8 (≈ 23.4 µM) | < 0.016 | 16 (≈ 46.7 µM) | 2 (≈ 5.84 µM) | 0.25 (≈ 0.73 µM) | 0.5 (≈ 1.46 µM) | 0.06 (≈ 0.175 µM) |
| Cc1c(N2CCC(C)CC2)ccc2c(=O)c(C(=O)O)cn(C3CC3)c12 | 2 (≈ 5.88 µM) | 2 (≈ 5.88 µM) | < 0.016 | 0.03 (≈ 0.0881 µM) | 0.5 (≈ 1.47 µM) | < 0.016 | < 0.016 | 0.03 (≈ 0.0881 µM) | < 0.016 | > 16 | 0.25 (≈ 0.734 µM) | 4 (≈ 11.8 µM) | < 0.016 | 8 (≈ 23.5 µM) | 0.125 (≈ 0.367 µM) | 0.25 (≈ 0.734 µM) | 1 (≈ 2.94 µM) | 0.06 (≈ 0.176 µM) |
| CC(=O)O.Cc1c(N2CC[C@@H](N)C2)ccc2c(=O)c(C(=O)O)cn(C3CC3)c12 | 0.06 | 0.125 | 0.25 | 0.25 | 0.5 | 0.125 | 0.6 | 0.03 | 0.125 | 16 | 0.25 | 2 | 0.016 | 0.5 | 0.25 | 0.25 | 4 | 0.016 |
| Cc1c(N2CCC(N)C2)ccc2c(=O)c(C(=O)O)cn(C3CC3)c12 (configuration not stated) | 0.5 (≈ 1.53 µM) | 0.125 (≈ 0.382 µM) | 0.25 (≈ 0.764 µM) | 0.5 (≈ 1.53 µM) | 1 (≈ 3.05 µM) | 0.125 (≈ 0.382 µM) | < 0.016 | < 0.016 | 0.125 (≈ 0.382 µM) | 16 (≈ 48.9 µM) | 0.06 (≈ 0.183 µM) | 1 (≈ 3.05 µM) | < 0.016 | 1 (≈ 3.05 µM) | 1 (≈ 3.05 µM) | < 0.016 | 4 (≈ 12.2 µM) | < 0.016 |
| Cc1c(N2CC(C)CC(C)C2)ccc2c(=O)c(C(=O)O)cn(C3CC3)c12 (configuration not stated) | 16 (≈ 45.1 µM) | 8 (≈ 22.6 µM) | < 0.016 | 1 (≈ 2.82 µM) | 1 (≈ 2.82 µM) | < 0.016 | 0.25 (≈ 0.705 µM) | 1 (≈ 2.82 µM) | < 0.016 | > 16 | 0.5 (≈ 1.41 µM) | > 16 | 0.5 (≈ 1.41 µM) | > 16 | 2 (≈ 5.64 µM) | 4 (≈ 11.3 µM) | 4 (≈ 11.3 µM) | 1 (≈ 2.82 µM) |
| Cc1c(N2CCCC(CO)C2)ccc2c(=O)c(C(=O)O)cn(C3CC3)c12 (configuration not stated) | 4 (≈ 11.2 µM) | 4 (≈ 11.2 µM) | < 0.016 | 0.25 (≈ 0.701 µM) | 0.5 (≈ 1.4 µM) | < 0.016 | < 0.016 | 0.125 (≈ 0.351 µM) | < 0.016 | 16 (≈ 44.9 µM) | 0.5 (≈ 1.4 µM) | 8 (≈ 22.4 µM) | 0.06 (≈ 0.168 µM) | 16 (≈ 44.9 µM) | 0.5 (≈ 1.4 µM) | 0.5 (≈ 1.4 µM) | 1 (≈ 2.81 µM) | 0.25 (≈ 0.701 µM) |
| Cc1c(N2CCNCC2)ccc2c(=O)c(C(=O)O)cn(C3CC3)c12.Cl | 0.25 | 0.125 | 0.5 | 2 | 2 | 0.25 | 0.03 | 0.03 | 0.5 | > 16 | 2 | 2 | < 0.016 | 2 | 2 | 0.26 | 16 | 0.03 |
